In US20260272878A1, “ADAR1 INHIBITORS AND USES THEREOF” (THE WISTAR INSTITUTE OF ANATOMY AND BIOLOGY, priority 2023, published 2026):

Target: T1, ADAR1p150 (Homo sapiens, UniProt P55265)
T1 sequence (P55265 1-1226): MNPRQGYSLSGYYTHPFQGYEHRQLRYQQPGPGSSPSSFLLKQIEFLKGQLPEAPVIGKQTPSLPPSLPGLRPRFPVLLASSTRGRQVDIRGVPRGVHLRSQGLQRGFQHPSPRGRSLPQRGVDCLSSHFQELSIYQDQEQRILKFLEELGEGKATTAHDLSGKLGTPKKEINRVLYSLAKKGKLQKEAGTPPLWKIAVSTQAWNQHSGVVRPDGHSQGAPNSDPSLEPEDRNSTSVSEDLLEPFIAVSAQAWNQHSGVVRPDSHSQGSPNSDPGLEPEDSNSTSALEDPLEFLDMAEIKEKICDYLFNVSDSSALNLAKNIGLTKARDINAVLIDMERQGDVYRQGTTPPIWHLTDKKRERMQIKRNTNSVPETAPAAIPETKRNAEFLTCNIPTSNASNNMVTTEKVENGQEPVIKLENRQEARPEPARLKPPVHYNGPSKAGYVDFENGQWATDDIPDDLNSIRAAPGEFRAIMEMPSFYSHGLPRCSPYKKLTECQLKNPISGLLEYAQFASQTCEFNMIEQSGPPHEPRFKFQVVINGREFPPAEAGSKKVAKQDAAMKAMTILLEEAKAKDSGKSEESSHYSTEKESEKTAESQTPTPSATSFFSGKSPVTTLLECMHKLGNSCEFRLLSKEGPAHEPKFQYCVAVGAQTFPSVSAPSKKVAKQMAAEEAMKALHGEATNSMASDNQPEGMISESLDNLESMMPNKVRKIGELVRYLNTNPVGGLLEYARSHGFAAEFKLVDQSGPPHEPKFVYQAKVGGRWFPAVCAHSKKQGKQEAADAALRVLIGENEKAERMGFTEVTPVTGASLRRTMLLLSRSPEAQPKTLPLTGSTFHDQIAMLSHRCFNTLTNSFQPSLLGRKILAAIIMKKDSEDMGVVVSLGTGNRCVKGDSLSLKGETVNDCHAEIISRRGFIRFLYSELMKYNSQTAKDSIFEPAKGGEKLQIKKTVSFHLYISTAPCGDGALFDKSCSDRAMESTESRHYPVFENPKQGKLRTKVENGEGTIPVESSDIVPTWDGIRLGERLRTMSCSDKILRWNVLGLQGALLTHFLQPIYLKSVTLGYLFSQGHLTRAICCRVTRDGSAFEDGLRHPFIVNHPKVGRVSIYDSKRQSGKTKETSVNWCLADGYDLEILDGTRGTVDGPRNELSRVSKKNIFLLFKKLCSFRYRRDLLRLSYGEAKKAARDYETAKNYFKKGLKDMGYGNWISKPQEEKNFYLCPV
Test: In vitro editing assay, ADAR1p150
Assay type: biochemical
Settings: for IC50: ADAR1p150 (not shown)
Protocol: The in vitro editing reaction mixture, containing 5 nM of telomere RNA:RNA duplex substrates and 75 nM of HAT-ADAR1p110-WT, FLAG-ADAR1p110-WT, or HA-ADAR1p110-EAA protein, was incubated at 37° C. for 2 h in in vitro editing buffer I (20 mM HEPES-KOH PH 7.5, 100 mM NaCl, 0.01% NP-40, 5% glycerol, 1 mM DTT). For editing of RNA:DNA hybrid substrates, in vitro editing buffer II (20 mM HEPES-KOH PH 7.5, 20 mM NaCl, 0.01% NP-40, 5% glycerol, 1 mM DTT) was used. Edited RNA or DNA strands were purified using Dynabeads MyOne Streptavidin C1 (Thermo Fisher Scientific). To remove opposite RNA or DNA strands, rNase H (NEB) or TURBO dNase (Thermo Fisher Scientific) was used, respectively. For sequencing of edited substrates, reverse transcription-PCR was carried out for RNA strands, while PCR was carried out for DNA strands. RT reactions were carried out using SuperScript III Reverse Transcriptase (Thermo Fisher Scientific), and PCR reactions were performed using Platinum Taq DNA polymerase (Thermo Fisher Scientific). PCR products were sequenced using a specific sequencing primer, and the ratio of A and G peaks in the chromatograms were analyzed by CodonCode Aligner (CodonCode Corporation).
Seven additional analogs of ADAR1i-13 (FIG. 5A) were synthesized to determine structural characteristics required for ADAR1 editing inhibitory activity. […] In vitro editing IC50 values of ADAR1i-13, ADAR1i-120, and ADAR1i-124 (FIG. 5A) were similar, in the ~10-20 μM range, for both ADAR1p110 (FIG. 5A) and ADAR1p150 (not shown).

Row | IC50 | Structure (SMILES) | Inhibition of ADAR1p150 (result in words)
1 | 10 to 20 µM | N#Cc1ccc(NC(=O)c2sc3ccccc3c2Cl)cc1 [ADAR1i-13, 3-chloro-N-(4-cyanophenyl)-1-benzothiophene-2-carboxamide] | –
2 | 10 to 20 µM | N#Cc1ccccc1NC(=O)c1sc2ccccc2c1Cl [ADAR1i-120] | –

Row | Structure (SMILES) | IC50 | Inhibition of ADAR1p150 (result in words)
3 | N#Cc1ccc(NC(=O)c2c(Cl)c3ccccc3n2CO)cc1 [ADAR1i-124] | 10 to 20 µM | inhibited both ADAR1p150 and ADAR1p-110
